Holding throughout (assay type): physicochemical
Series [1] is described as follows: Induction of sodium transport in chloroform layer up to 7 to 11 hrs.
The nature of series [2]: Induction of calcium transport in chloroform layer up to 7 to 11 hrs in absence of picrate.
Series [3] is described as follows: Induction of calcium transport in chloroform layer up to 7 to 11 hrs in presence of picrate.
A short description of series [4]: Induction of magnesium transport in chloroform layer up to 3 hrs.

Results on 11 compounds are retold here after ChEMBL document CHEMBL3272193, “New synthetic calcium selective ionophores. Design, synthesis, and transport properties” (J Med Chem, 1978).

As for `COc1ccccc1CC(C)N(C)C(=O)COCCOCC(=O)N(C)C(C)Cc1ccccc1OC` (mixture of isomers), the Activity result in series [1] is “Not Active”; in series [2], “Active”; in series [3], “Active”; in series [4], “Active”.

In the case of `O=C(COCCOCC(=O)NC12CC3CC(CC(C3)C1)C2)NC12CC3CC(CC(C3)C1)C2`, the Activity entry in series [1] was “Not Active”.

As for `O=C(COCCOCC(=O)N1c2ccccc2C=Cc2ccccc21)N1c2ccccc2C=Cc2ccccc21`, the Activity result in series [1] was “Not Active”; in series [2] it was “Active”; in series [3], “Active”.

In the case of `O=C(COCCOCC(=O)NCCc1ccccc1)NCCc1ccccc1`, the Activity entry in series [1] was “Not Active”.

Regarding `CC(CC1CCCCC1)N(C)C(=O)COCCOCC(=O)N(C)C(C)CC1CCCCC1` (mixture of isomers), the Activity entry is reported as “Not Active” in series [1], “Active” in series [2] and “Active” in series [3].

Take `O=C(O)COCC(=O)NCCc1ccccc1`: the Activity entry in series [1] was “Not Active”.

With `O=C(O)COCC(=O)NC12CC3CC(CC(C3)C1)C2`, in series [1], the Activity entry is recorded as “Not Active”.

Consider `O=C(COCCOCC(=O)NCCc1c[nH]c2ccccc12)NCCc1c[nH]c2ccccc12`, for which the Activity entry in series [1] is “Not Active”.

On to `O=C(O)COCC(=O)N1CCC(C(c2ccccc2)c2ccccc2)CC1`, for which the Activity result in series [1] was “Not Active”; in series [2] it was “Active”; in series [3] it was “Active”; in series [4] it was “Active”.

For `CC(CC1CCCCC1)N(C)C(=O)COCC(=O)O` (centres undefined), the Activity result is listed as “Not Active” in series [1], “Active” in series [2], “Active” in series [3] and “Active” in series [4].

Take `CN(CCc1ccccc1)C(=O)COCC(=O)O`: in series [1], the Activity entry is “Not Active”.
